Patent US4740601A, “Imidazole derivatives having antimicrobial activities” (SS Pharmaceutical Co., Ltd., priority 1985, dated 1988)
≈ marks a conversion by molar mass, not a printed value.

Test system: Staphylococcus epidermidis ATCC 12228
Test: antimicrobial activity, MIC
Assay type: cell-based
Conditions: Staphylococcus epidermidis, ATCC12228, Staphylococcus epidermidis ATCC 12228; read-out: MIC

Row | Structure (SMILES) | MIC
1 | CCCCCCOc1ccccc1C(=CSC)n1ccnc1 (single isomer, unassigned) [Compound 27] | 6.25 µg/mL (≈ 19.7 µM)

Test system: Trichophyton mentagrophytes IFO 5812
Test: antimicrobial activity, MIC
Assay type: cell-based
Conditions: Trichophyton mentagrophytes, IFO5812, Trichophyton mentagrophytes IFO 5812; read-out: MIC

Row | Structure (SMILES) | MIC
2 | CCCCCCOc1ccccc1C(=CSC)n1ccnc1 (single isomer, unassigned) [Compound 27] | < 0.2 µg/mL

Test system: Cladosporium fulvum IAM 5006
Test: antimicrobial activity, MIC
Assay type: cell-based
Conditions: Fulvia fulva, IAM5006, Cladosporium fulvum IAM 5006; read-out: MIC

Row | Structure (SMILES) | MIC
3 | CCCCCCOc1ccccc1C(=CSC)n1ccnc1 (single isomer, unassigned) [Compound 27] | 3.12 µg/mL (≈ 9.86 µM)

Test system: Candida albicans NHL 4019
Test: antimicrobial activity, MIC
Assay type: cell-based
Conditions: Candida albicans, NHL4019, Candida albicans NHL 4019; read-out: MIC

Row | Structure (SMILES) | MIC
4 | CCCCCCOc1ccccc1C(=CSC)n1ccnc1 (single isomer, unassigned) [Compound 27] | 25 µg/mL (≈ 79 µM)

Test system: Pyricularia oryzae IAM 5016
Test: microbe, parasite or virus in culture
Assay type: cell-based
Conditions: Pyricularia oryzae, IAM5016, Pyricularia oryzae IAM 5016

Row | Structure (SMILES) | MIC
5 | CCCCCCOc1ccccc1C(=CSC)n1ccnc1 (single isomer, unassigned) [Compound 27] | < 0.2 µg/mL

Test system: Staphylococcus aureus Terajima
Test: antimicrobial activity, MIC
Assay type: cell-based
Conditions: Staphylococcus aureus, read-out: MIC

Row | Structure (SMILES) | MIC
6 | CCCCCCOc1ccccc1C(=CSC)n1ccnc1 (single isomer, unassigned) [Compound 27] | 6.25 µg/mL (≈ 19.7 µM)

Test system: Helminthosporium sesamum IAM 5012
Test: antimicrobial activity, MIC
Assay type: cell-based
Conditions: Helminthosporium, IAM5012, Helminthosporium sesamum IAM 5012; read-out: MIC

Row | Structure (SMILES) | MIC
7 | CCCCCCOc1ccccc1C(=CSC)n1ccnc1 (single isomer, unassigned) [Compound 27] | < 0.2 µg/mL

Test system: Aspergillus niger ATCC 9642
Test: antimicrobial activity, MIC
Assay type: cell-based
Conditions: Aspergillus niger, ATCC9642, Aspergillus niger ATCC 9642; read-out: MIC

Row | Structure (SMILES) | MIC
8 | CCCCCCOc1ccccc1C(=CSC)n1ccnc1 (single isomer, unassigned) [Compound 27] | 0.39 µg/mL (≈ 1.23 µM)

Test system: Penicillium chrysogenum ATCC 6010
Test: antimicrobial activity, MIC
Assay type: cell-based
Conditions: Penicillium chrysogenum, ATCC6010, Penicillium chrysogenum ATCC 6010; read-out: MIC

Row | Structure (SMILES) | MIC
9 | CCCCCCOc1ccccc1C(=CSC)n1ccnc1 (single isomer, unassigned) [Compound 27] | 1.56 µg/mL (≈ 4.93 µM)

Test system: Debaryomyces kloeckeri IFO 0015
Test: antimicrobial activity, MIC
Assay type: cell-based
Conditions: IFO0015, read-out: MIC

Row | Structure (SMILES) | MIC
10 | CCCCCCOc1ccccc1C(=CSC)n1ccnc1 (single isomer, unassigned) [Compound 27] | 1.56 µg/mL (≈ 4.93 µM)

Test system: Trichophyton rubrum NHL J
Test: antimicrobial activity, MIC
Assay type: cell-based
Conditions: Trichophyton rubrum, Trichophyton rubrum NHL J; read-out: MIC

Row | Structure (SMILES) | MIC
11 | CCCCCCOc1ccccc1C(=CSC)n1ccnc1 (single isomer, unassigned) [Compound 27] | < 0.2 µg/mL

Test system: Staphylococcus aureus FDA 209P
Test: antimicrobial activity, MIC
Assay type: cell-based
Conditions: Staphylococcus aureus, FDA209P, read-out: MIC

Row | Structure (SMILES) | MIC
12 | CCCCCCOc1ccccc1C(=CSC)n1ccnc1 (single isomer, unassigned) [Compound 27] | 12.5 µg/mL (≈ 39.5 µM)

Test system: Saccharomyces ruxii 6507
Test: antimicrobial activity, MIC
Assay type: cell-based
Conditions: Saccharomyces ruxii 6507; read-out: MIC

Row | Structure (SMILES) | MIC
13 | CCCCCCOc1ccccc1C(=CSC)n1ccnc1 (single isomer, unassigned) [Compound 27] | < 0.2 µg/mL

Test system: Staphylococcus aureus Smith
Test: antimicrobial activity, MIC
Assay type: cell-based
Conditions: Staphylococcus aureus, read-out: MIC

Row | Structure (SMILES) | MIC
14 | CCCCCCOc1ccccc1C(=CSC)n1ccnc1 (single isomer, unassigned) [Compound 27] | 12.5 µg/mL (≈ 39.5 µM)

Test system: Microsporum audounii IFO 6074
Test: antimicrobial activity, MIC
Assay type: cell-based
Conditions: Microsporum, IFO6074, Microsporum audounii IFO 6074; read-out: MIC

Row | Structure (SMILES) | MIC
15 | CCCCCCOc1ccccc1C(=CSC)n1ccnc1 (single isomer, unassigned) [Compound 27] | < 0.2 µg/mL

Test system: Trichophyton tonsurans IFO 5928
Test: antimicrobial activity, MIC
Assay type: cell-based
Conditions: Trichophyton tonsurans, IFO5928, Trichophyton tonsurans IFO 5928; read-out: MIC

Row | Structure (SMILES) | MIC
16 | CCCCCCOc1ccccc1C(=CSC)n1ccnc1 (single isomer, unassigned) [Compound 27] | < 0.2 µg/mL

Test system: Candida albicans Yu-1200
Test: antimicrobial activity, MIC
Assay type: cell-based
Conditions: YU1200, read-out: MIC

Row | Structure (SMILES) | MIC
17 | CCCCCCOc1ccccc1C(=CSC)n1ccnc1 (single isomer, unassigned) [Compound 27] | 50 µg/mL (≈ 158 µM)

Test system: Gibberella fujikuroi IAM 8046
Test: antimicrobial activity, MIC
Assay type: cell-based
Conditions: Fusarium fujikuroi, IAM8046, Gibberella fujikuroi IAM 8046; read-out: MIC

Row | Structure (SMILES) | MIC
18 | CCCCCCOc1ccccc1C(=CSC)n1ccnc1 (single isomer, unassigned) [Compound 27] | < 0.2 µg/mL

Test system: Sarcina lutea ATCC 9341
Test: antimicrobial activity, MIC
Assay type: cell-based
Conditions: Micrococcus luteus, ATCC9341, Sarcina lutea ATCC 9341; read-out: MIC

Row | Structure (SMILES) | MIC
19 | CCCCCCOc1ccccc1C(=CSC)n1ccnc1 (single isomer, unassigned) [Compound 27] | 3.12 µg/mL (≈ 9.86 µM)

Test system: Aspergillus oryzae IMF 4014
Test: antimicrobial activity, MIC
Assay type: cell-based
Conditions: Aspergillus oryzae, IMF4014, Aspergillus oryzae IMF 4014; read-out: MIC

Row | Structure (SMILES) | MIC
20 | CCCCCCOc1ccccc1C(=CSC)n1ccnc1 (single isomer, unassigned) [Compound 27] | < 0.2 µg/mL

Test system: Epidermophyton floccosum IFO 9045
Test: antimicrobial activity, MIC
Assay type: cell-based
Conditions: Epidermophyton floccosum, IFO9045, Epidermophyton floccosum IFO 9045; read-out: MIC

Row | Structure (SMILES) | MIC
21 | CCCCCCOc1ccccc1C(=CSC)n1ccnc1 (single isomer, unassigned) [Compound 27] | < 0.2 µg/mL

Test system: Fusarium moniliforme IAM 5062
Test: antimicrobial activity, MIC
Assay type: cell-based
Conditions: Fusarium verticillioides, IAM5062, Fusarium moniliforme IAM 5062; read-out: MIC

Row | Structure (SMILES) | MIC
22 | CCCCCCOc1ccccc1C(=CSC)n1ccnc1 (single isomer, unassigned) [Compound 27] | < 0.2 µg/mL

Test system: Bacillus subtilis ATCC 6633
Test: antimicrobial activity, MIC
Assay type: cell-based
Conditions: Bacillus subtilis, ATCC6633, Bacillus subtilis ATCC 6633; read-out: MIC

Row | Structure (SMILES) | MIC
23 | CCCCCCOc1ccccc1C(=CSC)n1ccnc1 (single isomer, unassigned) [Compound 27] | 6.25 µg/mL (≈ 19.7 µM)

Test system: Saccharomyces cerevisiae ATCC 9763
Test: antimicrobial activity, MIC
Assay type: cell-based
Conditions: Saccharomyces cerevisiae, ATCC9763, Saccharomyces cerevisiae ATCC 9763; read-out: MIC

Row | Structure (SMILES) | MIC
24 | CCCCCCOc1ccccc1C(=CSC)n1ccnc1 (single isomer, unassigned) [Compound 27] | < 0.2 µg/mL

Test system: Microsporum gypseum IFO 8231
Test: antimicrobial activity, MIC
Assay type: cell-based
Conditions: Nannizzia gypsea, IFO8231, Microsporum gypseum IFO 8231; read-out: MIC

Row | Structure (SMILES) | MIC
25 | CCCCCCOc1ccccc1C(=CSC)n1ccnc1 (single isomer, unassigned) [Compound 27] | < 0.2 µg/mL

Test system: Streptococcus faecalis IFO 12964
Test: antimicrobial activity, MIC
Assay type: cell-based
Conditions: Enterococcus faecalis, IFO12964, Streptococcus faecalis IFO 12964; read-out: MIC

Row | Structure (SMILES) | MIC
26 | CCCCCCOc1ccccc1C(=CSC)n1ccnc1 (single isomer, unassigned) [Compound 27] | 12.5 µg/mL (≈ 39.5 µM)

Test system: Micrococcus lysodeixticus IFO 3333
Test: antimicrobial activity, MIC
Assay type: cell-based
Conditions: Micrococcus, IFO3333, Micrococcus lysodeixticus IFO 3333; read-out: MIC

Row | Structure (SMILES) | MIC
27 | CCCCCCOc1ccccc1C(=CSC)n1ccnc1 (single isomer, unassigned) [Compound 27] | 1.56 µg/mL (≈ 4.93 µM)

Test system: Trichophyton mentagrophytes QM 248
Test: antimicrobial activity, MIC
Assay type: cell-based
Conditions: Trichophyton mentagrophytes, QM248, Trichophyton mentagrophytes QM 248; read-out: MIC

Row | Structure (SMILES) | MIC
28 | CCCCCCOc1ccccc1C(=CSC)n1ccnc1 (single isomer, unassigned) [Compound 27] | < 0.2 µg/mL

Test system: Microsporum cookei IFO 8303
Test: antimicrobial activity, MIC
Assay type: cell-based
Conditions: Paraphyton cookei, IFO8303, Microsporum cookei IFO 8303; read-out: MIC

Row | Structure (SMILES) | MIC
29 | CCCCCCOc1ccccc1C(=CSC)n1ccnc1 (single isomer, unassigned) [Compound 27] | < 0.2 µg/mL
